Test system: 377384-186-R-J1-PDC complex spheroid viability
Assay: Anticancer human tumor 377384-186-R-J1-PDC patient-derived pancreatic carcinoma cell line growth inhibition [CLK]
Conditions: for IC50: curve of first compound; for viability, T/C: stronger effect = lower value; active = viability on the fitted dose curve at most 10% of control; inactive = the rest
Source text: A high-throughput screen of multi-cell type tumor spheroids was designed to identify active combinations of […] and targeted small molecules. Complex spheroids include a stromal component modeled by human endothelial cells (HUVEC) and fibroblasts modeled by human mesenchymal stem cells (MSCs). The concentration ranges selected for each drug and investigational agent were based upon clinically achievable concentrations if the clinical Cmax of the agent was known.
Compounds. The drugs and investigational agents: cirtuvivint (SM08502; NSC835563), CC-671 (NSC850746), vemurafenib (NSC761431), tapotoclax (NSC804041), sotorasib (NSC818433), adagrasib (NSC831453), MRTX-1133 (NSC836407), BAY2416964 (NSC825713), copanlisib (NSC816437), inavolisib (NSC800729), abemaciclib (NSC768073), osimertinib (NSC779217), entinostat (NSC756642), eltanexor (KPT-8602, NSC794443), venetoclax (NSC766270), ceralasertib (NSC777638), bortezomib (NSC756655), olaparib (NSC753686), talazoparib (NSC767125), alisertib (NSC759677), peposertib (NSC802822), gemcitabine (NSC613327), 5-fluorouracil (NSC19893), SN-38 (NSC673596), oxaliplatin (NSC266046), paclitaxel (NSC125973), and doxorubicin (NSC123127), were obtained from the National Cancer Institute (NCI) Developmental Therapeutics Program Chemical Repository. The FDA-approved anticancer drug set is available from the Developmental Therapeutics Program at https://dtp.cancer.gov/organization/dscb/obtaining/available plates.htm. […] The stock solutions were prepared in dimethyl sulfoxide (DMSO, Sigma-Aldrich, St. Louis, MO, cat. D2650), except for the platinum complexes which were prepared in saline (Quality Biological, Gaithersburg, MD, cat. 114-055-101), at 800-fold the tested concentration and stored at -70 degrees C prior to their use. All drugs and investigational agents were tested over a range starting from a high concentration at or near the clinical Cmax and decreasing in half-log increments. If the clinical Cmax for an agent had not been determined, the highest concentration tested was 10 microM.
Cell Culture. All cells were maintained in an incubator at 37 degrees C and 5% CO2 with 95% humidity. The PDC lines were cultured according to standard operating procedures established by the NCI PDMR. Briefly, all PDCs were thawed and cultured in Matrigel-coated flasks prepared with a working solution of 1X Ham's F-12 nutrient mix, without supplementation (Invitrogen, Waltham, MA, cat. 11765054), 100 U/mL penicillin-streptomycin (Invitrogen, cat. 15140122), and 2.5% Matrigel (Corning Inc., Corning, NY, cat. 354248) for the first three passages. The 947758-054-R-J2-PDC line was cultured in 6B/Colon 1A media, which includes advanced DMEM/F-12 (Thermo Fisher Scientific, cat. 12634028), 10 mM HEPES (Thermo Fisher Scientific, cat. 15630080), 1X GlutaMAX supplement (Thermo Fisher Scientific, cat. 35050061), 0.1 mg/mL primocin (InvivoGen, cat. ant-pm-2), 10% defined fetal bovine serum, heat inactivated (HyClone Laboratories Inc., cat. SH30070.03HI), 1.25 mM N-Acetyl-L-cysteine (Sigma-Aldrich, cat. A9165), 10 mM nicotinamide (Sigma-Aldrich, cat. N0636), 1X B-27 supplement (Thermo Fisher Scientific, cat. 17504044), 1X N-2 supplement (Thermo Fisher Scientific, cat. 17502048), and 10 microM Y-27632 dihydrochloride (Tocris Bioscience, cat. 1254). The 876862-298-R-J1-PDC was cultured in 6E media, which includes all 6B/Colon 1A media components plus 50% L-WRN conditioned media (ATCC, cat. CRL-3276), 50 ng/mL recombinant human EGF recombinant protein (hEGF; Thermo Fisher Scientific, cat. PHG0311), 10 ng/mL recombinant human fibroblast growth factor 10 (hGFG-10; PeproTech, cat. 100-26), 1 ng/mL recombinant human fibroblast growth factor 2 (hFGF-2; PeproTech, cat. 100-18B), and 1 µM prostaglandin E2 (PGE2; Tocris, cat. 2296). The 227483-062-R1-J1-PDC line was cultured in Panc media, containing all 6E components except hFGF-2, with the addition of 500 nM SB-431542 (Selleckchem, cat. S1067) and 10 nM gastrin (Tocris, cat. 3006). […]
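Note: spheroids exposed to agents for 7 days before reading.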
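Throughout, for viability, T/C: luminescence signal used as a stand-in for viable cells.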

CC(CO)NC(=O)c1cc(-c2ccc(Cl)cc2)nn(-c2cnn(C)c2)c1=O (configuration not stated) + CN1CCN(c2cc(C(=O)Nc3cc4cc(-c5cnn(C)c5)ccc4cn3)ccn2)CC1
active: viability, T/C (second compound 1 µM, first compound 0.0316 µM) 1.54% | viability, T/C (second compound 1 µM, first compound 0.1 µM) 1.76% | viability, T/C (second compound 1 µM, first compound 0.316 µM) 1.91% | viability, T/C (second compound 1 µM, first compound 1 µM) 1.77% | viability, T/C (second compound 1 µM, first compound 3.16 µM) 2.49% | viability, T/C (second compound 1 µM, first compound 10 µM) 2.71% | viability, T/C (second compound 3.16 µM, first compound 0.0316 µM) 0.34% | viability, T/C (second compound 3.16 µM, first compound 0.1 µM) 1% | viability, T/C (second compound 3.16 µM, first compound 0.316 µM) 0.42% | viability, T/C (second compound 3.16 µM, first compound 1 µM) 0.4% | viability, T/C (second compound 3.16 µM, first compound 3.16 µM) 0.66% | viability, T/C (second compound 3.16 µM, first compound 10 µM) 0.95% | viability, T/C (second compound 10 µM, first compound 0.0316 µM) 0.55% | viability, T/C (second compound 10 µM, first compound 0.1 µM) 0.43% | viability, T/C (second compound 10 µM, first compound 0.316 µM) 0.69% | viability, T/C (second compound 10 µM, first compound 1 µM) 0.78% | viability, T/C (second compound 10 µM, first compound 3.16 µM) 0.94% | viability, T/C (second compound 10 µM, first compound 10 µM) 0.42%
inactive: viability, T/C (second compound 0.0316 µM, first compound 0.0316 µM) 104% | viability, T/C (second compound 0.0316 µM, first compound 0.1 µM) 118% | viability, T/C (second compound 0.0316 µM, first compound 0.316 µM) 101% | viability, T/C (second compound 0.0316 µM, first compound 1 µM) 93.5% | viability, T/C (second compound 0.0316 µM, first compound 3.16 µM) 82.3% | viability, T/C (second compound 0.0316 µM, first compound 10 µM) 51.5% | viability, T/C (second compound 0.1 µM, first compound 0.0316 µM) 107% | viability, T/C (second compound 0.1 µM, first compound 0.1 µM) 105% | viability, T/C (second compound 0.1 µM, first compound 0.316 µM) 85.5% | viability, T/C (second compound 0.1 µM, first compound 1 µM) 101% | viability, T/C (second compound 0.1 µM, first compound 3.16 µM) 77.7% | viability, T/C (second compound 0.1 µM, first compound 10 µM) 57% | viability, T/C (second compound 0.316 µM, first compound 0.0316 µM) 33.6% | viability, T/C (second compound 0.316 µM, first compound 0.1 µM) 30.6% | viability, T/C (second compound 0.316 µM, first compound 0.316 µM) 27.8% | viability, T/C (second compound 0.316 µM, first compound 1 µM) 31.3% | viability, T/C (second compound 0.316 µM, first compound 3.16 µM) 31.9% | viability, T/C (second compound 0.316 µM, first compound 10 µM) 29.1%
> 10000 nM: IC50 (second compound 0.0316 µM) | IC50 (second compound 0.1 µM)
< 31.6 nM: IC50 (second compound 0.316 µM) | IC50 (second compound 1 µM) | IC50 (second compound 3.16 µM) | IC50 (second compound 10 µM)

From PubChem BioAssay AID2060616 (Molecular Pharmacology Branch, DTP, NCI, 2025)
